From US7371764B2, “Quinolin-isoquinolin-and quinazolin-oxyalkylamides and their use as fungicides” (priority 2002, dated 2008)
Like-named read-outs stand apart in the source and are kept apart here.

Assays:
Pythium ultimum = Pythium ultimum (Damping off) growth inhibition in potato dextrose broth, microtiter plate; format: cell-based; conditions: Globisporangium ultimum, 24° C., after 48 hours, read-out: control of fungal infection (inhibition of growth, determined photometrically)
Pyrenophora teres = format: in vivo; conditions: 200 ppm
Septoria nodorum = format: in vivo; conditions: 200 ppm
[1] = test system: Puccinia recondita f.sp. tritici; format: in vivo; conditions: 200 ppm

CC#CC(C)(C)NC(=O)C(COC)Oc1ccc2ncccc2c1 (centres unmarked) [2(11), 2-(6-quinolinyloxy)-N-(2-methylpent-3-yn-2-yl)-3-methoxypropionamide]
inhibition at 20 ppm (Pythium ultimum; potato dextrose broth): > 60%

CC#CC(C)(C)NC(=O)C(CC)Oc1ccc2ncncc2c1 (centres unmarked) [2(20), 2-(6-quinazolinoxy)-N-(4-methylpent-2-yn-4-yl) butyramide]
control of fungal infection (preventive fungicidal activity) (Pyrenophora teres): more than 60%

CC#CC(C)(C)NC(=O)C(COC)Oc1ccc2ccncc2c1 (centres unmarked) [2(49), 2-(7-isoquinolinyloxy)-N-(2-methylpent-3-yn-2-yl)-3-methoxypropionamide]
inhibition at 20 ppm (Pythium ultimum; potato dextrose broth): > 60%
melting point: 155 to 156 °C

CCC(Oc1ccc2ncccc2c1)C(=O)NC(C)(C)C#CCO (centres unmarked) [10(1), 2-(6-quinolinyloxy)-N-(1-hydroxy-4-methylpent-2-yn-4-yl) butyramide]
control of fungal infection (preventive fungicidal activity) (Septoria nodorum): more than 60%

CCC(Oc1ccc2ncccc2c1)C(=O)NC(C)(C)C#CCOC (centres unmarked) [12(1), 2-(6-quinolinyloxy)-N-(1-methoxy-4-methylpent-2-yn-4-yl)butyramide]
inhibition at 20 ppm (Pythium ultimum): > 60%

CCC(Oc1ccc2ncccc2c1)C(=O)NC(C)(C)C#CCO[Si](C)(C)C(C)(C)C (centres unmarked) [50(1), 2-(6-quinolinyloxy)-N-(1-tert-butyldi-methylsilyloxy-4-methylpent-2-yn-4-yl)butyramide]
inhibition at 20 ppm (Pythium ultimum): > 60%

CCC(Oc1ccc2ncc(Br)cc2c1)C(=O)NC(C)(C)C#CCCCC#N (centres unmarked) [90(77), 2-(3-bromo-6-quinolinyloxy)-N-(1-cyano-6-methylhept-4-yn-6-yl) butyramide]
control of fungal infection (preventive fungicidal activity) [1]: more than 60%
